Biological target: T1, MDM2 (Homo sapiens, UniProt Q00987)
T1 construct: made in house
Experiment: Inhibition test of MDM2-P53 (GST-MDM2, Biotin-P53, Anti-GST-Tb, SA-XL665)
Assay type: binding
Method in brief: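 Binding was measured by TR-FRET with GST-MDM2 at 4 nM final in PBS with 0.1% BSA, 5 mM DTT and 1 mM AEBSF. Compounds were tested as twelve-point 5-fold dilutions and incubated with the detection mix for 90 min at 25 °C with shaking before plate-reader reading and curve fitting.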

T1 sequence (Q00987 whole entry): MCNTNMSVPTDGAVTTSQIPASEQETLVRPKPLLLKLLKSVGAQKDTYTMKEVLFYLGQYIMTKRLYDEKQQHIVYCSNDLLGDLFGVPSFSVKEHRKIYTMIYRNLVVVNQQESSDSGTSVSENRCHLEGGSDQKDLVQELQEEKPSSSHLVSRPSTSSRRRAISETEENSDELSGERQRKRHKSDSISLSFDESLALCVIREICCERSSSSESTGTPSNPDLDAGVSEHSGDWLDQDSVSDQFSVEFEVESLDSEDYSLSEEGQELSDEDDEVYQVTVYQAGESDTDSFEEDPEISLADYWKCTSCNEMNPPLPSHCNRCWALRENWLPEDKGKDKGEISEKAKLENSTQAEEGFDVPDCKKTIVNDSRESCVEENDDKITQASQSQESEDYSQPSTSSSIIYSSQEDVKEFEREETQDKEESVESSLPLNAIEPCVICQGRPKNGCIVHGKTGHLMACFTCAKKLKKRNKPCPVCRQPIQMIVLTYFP

CCOc1cc(OC)c(-c2nc3c(n2C(C)C)[C@]2(C(=O)Nc4cc(Cl)ccc42)N(c2cc(Cl)cnc2C)C3=O)cn1 [Example R-96, (R)-6-chloro-5′-(5-chloro-2-methylpyridin-3-yl)-2′-(6-ethoxy-4-methoxypyridin-3-yl)-3′-isopropyl-3′H-spiro[dihydroindole-3,4′-pyrrolo[3,4-d]imidazole]-2,6′(5′H)-dione]
IC50: 151 nM

CCOc1cc(OC)c(-c2nc3c(n2C(C)C)[C@]2(C(=O)Nc4cc(Cl)ccc42)N(c2cc(Cl)ccc2F)C3=O)cn1 [Example R-98, (R)-6-chloro-5′-(5-chloro-2-fluorophenyl)-2′-(6-ethoxy-4-methoxypyridin-3-yl)-3′-isopropyl-3′H-spiro[dihydroindole-3,4′-pyrrolo[3,4-d]imidazole]-2,6′(5′H)-dione]
IC50: 1030 nM

CCOc1ccc(-c2nc3c(n2C(C)C)[C@]2(C(=O)Nc4cc(Cl)ccc42)N(c2cccc(Cl)c2)C3=O)c(OC)c1 [Example R-100, (R)-6-chloro-5′-(3-chlorophenyl)-2′-(4-ethoxy-2-methoxyphenyl)-3′-isopropyl-3′H-spiro[dihydroindole-3,4′-pyrrolo[3,4-d]imidazole]-2,6′(5′H)-dione]
IC50: 633 nM

COc1cc(C(C)(C)C)ccc1-c1nc2c(n1C(C)C)[C@]1(C(=O)Nc3cc(Cl)ccc31)N(c1cc(Cl)ccc1C)C2=O [Example R-101, (R)-2′-(4-(tert-butyl)-2-methoxyphenyl)-6-chloro-5′-(5-chloro-2-methylphenyl)-3′-isopropyl-3′H-spiro[dihydroindole-3,4′-pyrrolo[3,4-d]imidazole]-2,6′(5′H)-dione]
IC50: 2000 nM

CCOc1cc(OC)c(-c2nc3c(n2C(C)C)[C@]2(C(=O)Nc4cc(Cl)ccc42)N(c2cccc(Cl)c2)C3=O)cn1 [Example R-102, (R)-6-chloro-5′-(3-chlorophenyl)-2′-(6-ethoxy-4-methoxypyridin-3-yl)-3′-isopropyl-3′H-spiro[dihydroindole-3,4′-pyrrolo[3,4-d]imidazole]-2,6′(5′H)-dione]
IC50: 413 nM

CCN(CC)c1ccc(-c2nc3c(n2C(C)C)[C@]2(C(=O)Nc4cc(Cl)ccc42)N(c2cc(Cl)ccc2C)C3=O)c(OC)c1 [Example R-105, (R)-6-chloro-5′-(5-chloro-2-methylphenyl)-2′-(4-(diethylamino)-2-methoxyphenyl)-3′-isopropyl-3′H-spiro[dihydroindole-3,4′-pyrrolo[3,4-d]imidazole]-2,6′(5′H)-dione]
IC50: 343 nM

COc1cc(C2CC2)ncc1-c1nc2c(n1C(C)C)[C@]1(C(=O)Nc3cc(Cl)ccc31)N(c1cccc(Cl)c1)C2=O [Example R-106, (R)-6-chloro-5′-(3-chlorophenyl)-2′-(6-cyclopropyl-4-methoxypyridin-3-yl)-3′-isopropyl-3′H-spiro[dihydroindole-3,4′-pyrrolo[3,4-d]imidazole]-2,6′(5′H)-dione]
IC50: 481 nM

COc1cc(C2CC2)cc(OC)c1-c1nc2c(n1C(C)C)[C@]1(C(=O)Nc3cc(Cl)ccc31)N(c1cc(Cl)ccc1C)C2=O [Example R-108, (R)-6-chloro-5′-(5-chloro-2-methylphenyl)-2′-(4-cyclopropyl-2,6-dimethoxyphenyl)-3′-isopropyl-3′H-spiro[dihydroindole-3,4′-pyrrolo[3,4-d]imidazole]-2,6′(5′H)-dione]
IC50: 691 nM

COc1cc(OC2CC2)ncc1-c1nc2c(n1C(C)C)[C@]1(C(=O)Nc3cc(Cl)ccc31)N(c1cc(Cl)ccc1C)C2=O [Example R-110, (R)-6-chloro-5′-(5-chloro-2-methylphenyl)-2′-(6-cyclopropoxy-4-methoxypyridin-3-yl)-3′-isopropyl-3′H-spiro[dihydroindole-3,4′-pyrrolo[3,4-d]imidazole]-2,6′(5′H)-dione]
IC50: 704 nM

COc1nc(N(C)C)ncc1-c1nc2c(n1C(C)C)[C@]1(C(=O)Nc3cc(Cl)ccc31)N(c1cccc(Cl)c1)C2=O [Example R-112, (R)-6-chloro-5′-(3-chlorophenyl)-2′-(2-(dimethylamino)-4-methoxypyrimidin-5-yl)-3′-isopropyl-3′H-spiro[dihydroindole-3,4′-pyrrolo[3,4-d]imidazole]-2,6′(5′H)-dione]
IC50: 104 nM

COc1cc(C2CC2)ccc1-c1nc2c(n1C(C)C)[C@]1(C(=O)Nc3cc(Cl)ccc31)N(c1cccc(Cl)c1)C2=O [Example R-116, (R)-6-chloro-5′-(3-chlorophenyl)-2′-(4-cyclopropyl-2-methoxyphenyl)-3′-isopropyl-3′H-spiro[dihydroindole-3,4′-pyrrolo[3,4-d]imidazole]-2,6′(5′H)-dione]
IC50: 689 nM

COc1nc(N2CCC2)ncc1-c1nc2c(n1C(C)C)[C@]1(C(=O)Nc3cc(Cl)ccc31)N(c1cc(Cl)ccc1C)C2=O [Example R-117, (R)-2′-(2-(12zetidine-1-yl)-4-methoxypyrimidin-5-yl)-6-chloro-5′-(5-chloro-2-methylphenyl)-3′-isopropyl-3′H-spiro[dihydroindole-3,4′-pyrrolo[3,4-d]imidazole]-2,6′(5′ H)-dione]
IC50: 233 nM

COc1nc(C)ncc1-c1nc2c(n1C(C)C)[C@]1(C(=O)Nc3cc(Cl)ccc31)N(c1cc(Cl)ccc1C)C2=O [Example R-118, (R)-6-chloro-5′-(5-chloro-2-methylphenyl)-3′-isopropyl-2′-(4-methoxy-2-methylpyrimidin-5-yl)-3′H-spiro[dihydroindole-3,4′-pyrrolo[3,4-d]imidazole]-2,6′(5′H)-dione]
IC50: 436 nM

CCN(C)c1ncc(-c2nc3c(n2C(C)C)[C@]2(C(=O)Nc4cc(Cl)ccc42)N(c2cc(Cl)ccc2C)C3=O)c(OC)n1 [Example R-119, (R)-6-chloro-5′-(5-chloro-2-methylphenyl)-2′-(2-(ethyl(methyl)amino)-4-methoxypyrimidin-5-yl)-3′-isopropyl-3′H-spiro[dihydroindole-3,4′-pyrrolo[3,4-d]imidazole]-2,6′(5′H)-dione]
IC50: 851 nM

COc1cc(OC(F)(F)F)ccc1-c1nc2c(n1C(C)C)[C@]1(C(=O)Nc3cc(Cl)ccc31)N(c1cccc(Cl)c1)C2=O [Example R-120, (R)-6-chloro-5′-(3-chlorophenyl)-3′-isopropyl-2′-(2-methoxy-4-(trifluoromethoxy)phenyl)-3′H-spiro[dihydroindole-3,4′-pyrrolo[3,4-d]imidazole]-2,6′(5′H)-dione]
IC50: 4780 nM

COc1nc(C2CC2)ncc1-c1nc2c(n1C(C)C)[C@]1(C(=O)Nc3cc(Cl)ccc31)N(c1cc(Cl)ccc1C)C2=O [Example R-121, (R)-6-chloro-5′-(5-chloro-2-methylphenyl)-2′-(2-cyclopropyl-4-methoxypyrimidin-5-yl)-3′-isopropyl-3′H-spiro[dihydroindole-3,4′-pyrrolo[3,4-d]imidazole]-2,6′ (5′H)-dione]
IC50: 300 nM

COc1nc(C2CC2)ncc1-c1nc2c(n1C(C)C)[C@]1(C(=O)Nc3cc(Cl)ccc31)N(c1cccc(Cl)c1)C2=O [Example R-122, (R)-6-chloro-5′-(3-chlorophenyl)-2′-(2-cyclopropyl-4-methoxypyrimidin-5-yl)-3′-isopropyl-3′H-spiro[dihydroindole-3,4′-pyrrolo[3,4-d]imidazole]-2,6′(5′H)-dione]
IC50: 794 nM

CCOc1ncc(-c2nc3c(n2C(C)C)[C@]2(C(=O)Nc4cc(Cl)ccc42)N(c2cccc(Cl)c2)C3=O)c(OC)n1 [Example R-123, (R)-6-chloro-5′-(3-chlorophenyl)-2′-(2-ethoxy-4-methoxypyrimidin-5-yl)-3′-isopropyl-3′H-spiro[dihydroindole-3,4′-pyrrolo[3,4-d]imidazole]-2,6′(5′H)-dione]
IC50: 116 nM

COc1nc(OC(C)C)ncc1-c1nc2c(n1C(C)C)[C@]1(C(=O)Nc3cc(Cl)ccc31)N(c1cccc(Cl)c1)C2=O [Example R-124, (R)-6-chloro-5′-(3-chlorophenyl)-2′-(2-isopropoxy-4-methoxypyrimidin-5-yl)-3′-isopropyl-3′H-spiro[dihydroindole-3,4′-pyrrolo[3,4-d]imidazole]-2,6′(5′H)-dione]
IC50: 1310 nM

COc1cc(C#N)ccc1-c1nc2c(n1C(C)C)[C@]1(C(=O)Nc3cc(Cl)ccc31)N(c1cccc(Cl)c1)C2=O [Example R-128, (R)-4-(6-chloro-5′-(3-chlorophenyl)-3′-isopropyl-2,6′-dioxo-5′,6′-dihydro-3′H-spiro[dihydroindole-3,4′-pyrrolo[3,4-d]imidazole]-2′-yl)-3-methoxybenzonitrile]
IC50: 612 nM

COc1cc(C(F)(F)F)ccc1-c1nc2c(n1C(C)C)[C@]1(C(=O)Nc3cc(Cl)ccc31)N(c1cccc(Cl)c1)C2=O [Example R-129, (R)-6-chloro-5′-(3-chlorophenyl)-3′-isopropyl-2′-(2-methoxy-4-(trifluoromethyl)phenyl)-3′H-spiro[dihydroindole-3,4′-pyrrolo[3,4-d]imidazole]-2,6′(5′H)-dione]
IC50: 149 nM

COc1cc(F)c(-c2nc3c(n2C(C)C)[C@]2(C(=O)Nc4cc(Cl)ccc42)N(c2cc(Cl)ccc2C)C3=O)c(OC)c1 [Example R-130, (R)-6-chloro-5′-(5-chloro-2-methylphenyl)-2′-(2-fluoro-4,6-dimethoxyphenyl)-3′-isopropyl-3′H-spiro[dihydroindole-3,4′-pyrrolo[3,4-d]imidazole]-2,6′(5′H)-dione]
IC50: 568 nM

COc1cc(OC)c(-c2nc3c(n2C(C)C)[C@]2(C(=O)Nc4cc(Cl)ccc42)N(c2cc(Cl)cnc2C)C3=O)cn1 [Example R-131, (R)-6-chloro-5′-(5-chloro-2-methylpyridin-3-yl)-2′-(4,6-dimethoxypyridin-3-yl)-3′-isopropyl-3′H-spiro[dihydroindole-3,4′-pyrrolo[3,4-d]imidazole]-2,6′(5′H)-dione]
IC50: 120 nM

COc1cc(OC)c(-c2nc3c(n2C(C)C)[C@]2(C(=O)Nc4cc(Cl)ccc42)N(c2cc(Cl)ccc2F)C3=O)cn1 [Example R-133, (R)-6-chloro-5′-(5-chloro-2-fluorophenyl)-2′-(4,6-dimethoxypyridin-3-yl)-3′-isopropyl-3′H-spiro[dihydroindole-3,4′-pyrrolo[3,4-d]imidazole]-2,6′(5′H)-dione]
IC50: 1110 nM

— patent publication US11339171B2, “MDM2 inhibitors” (Gan & Lee Pharmaceuticals, priority 2017, dated 2022)
